Assay results reported in US10485800B2, “Mixed lineage kinase inhibitors for HIV/AIDS therapies” (UNIVERSITY OF ROCHESTER, priority 2012, dated 2019).

Columns and labels:
HIV-1 = settings: in vivo model of HIV-1 infection; cited from earlier work
MLK3 = MLK3 (Rattus norvegicus (Rat), UniProt Q66HA1); settings: primary rat neurons; cited from earlier work
[1] = tested on: primary rat hippocampal neurons; settings: primary rat hippocampal and dorsal root ganglion neurons; cited from earlier work
Human monocytes = assay: Tat-assays: Tat-induced cytokine and chemokine production in human monocytes (Luminex); format: cell-based; settings: 50 nM HIV-1 Tat, 8 hours
Protocol: Human monocytes were isolated from freshly collected whole blood using CD14 immunomagnetic beads (Miltenyi-Biotec). Cells were then plated in 24-well plates at 5×10^4 cells/well in RPMI-1640 culture medium supplemented with 10% fetal bovine serum (FBS). The specified compounds were then added to the cultures at the indicated concentrations (100, […], 1000 nM); in control wells, no compound was added. 30 min later, HIV-1 Tat was added to a final concentration of 50 nM the cells were incubated for 8 hours (in control wells, nothing was added [NT]). Cell supernatants were then collected, centrifuged 15 min at 13000 rpm to remove debris, transferred to new microcentrifuge tubes and frozen at −20° C. A Luminex bead array assay was then performed, for the indicated chemokines and cytokines. Results were measured in triplicate or quadruplicate, and data are presented as mean values; error bars denote the standard deviation. Note that similar results were obtained with monocytes derived from multiple (n>5) different donors, as well as in terminally differentiated monocyte-derived macrophages (data not shown due to space limitations). *:p<0.05; one-way ANOVA with Bonferroni's correction (when compared to Tat only control). See FIG. 11 (tat-induced cytokine production) and FIG. 12 (tat-induced chemokine production).

Rab7 = Rab7 (Homo sapiens (Human), UniProt P51149); assay: Proteomic analyses of human monocyte-derived macrophages (Rab7); format: cell-based; settings: HIV-1 infected MDM
From the text: FIG. 7 (top) is a schematic of a proteomic analysis.
FIG. 8 is a photograph from a Western blot validation for Rab7a. Rab7A (Protein KB) is a key regulator in endolysosomal trafficking. It governs early-to-late endosomal maturation, microtubule minus-end as well as plus-end directed endosomal migration and positioning, and endosome-lysosome transport.
(§1) Higher plasma drug levels correspond to lowest viral load.

[2] = tested on: Rab 7 late endosomal compartment; assay: Rab studies: nanoART drug levels in endosomal compartments; format: cell-based
Protocol: FIG. 25 is a graph showing that Compound AH is able to sustain the presence of atazanavir/ritonavir nanoART in late endosomes. Concentrations of 1 and 10 ng/mL of Compound AH increases drug levels for more than 10 days in these compartments. This is significant and reproducible. […] Thus more of the drug is present in there for longer time periods, boosting efficacy and leading to reduction of residual virus.
The Rab 7 compartment increased marked in size and expression (protein content) as a result of HIV infection. […] That is also where anti-HIV proteases work and where their sites of actions lie. […] This signals that the combination has eliminated or nearly so, the ability of virus to assemble in this compartment.

HIV-1 ADA = assay: HIV-1 infection model in humanized mice; format: in vivo; settings: nanoART 6 weeks s.c.; Compound AH 10 mg/kg i.p. once daily during final two weeks
Protocol: The MLK inhibitor Compound AH was used in test with an animal model for HIV-1 infection. Specifically, 22 week old humanized mice (NOD/scidIL-2Rγc^null (NSG) mice stably engrafted with human CD34+ hematopoeitic stem cells were infected with HIV-1 ADA (Gorantla et al., J. Virol. 81:2700-2712, 2007). The mice were then treated with the nanoformulated antiretroviral therapy comprising atazanavir and ritonavir (nanoART) for 6 weeks by s.c. injections (6×/week). During the final two weeks, the animals also received the MLK-3 inhibitor Compound AH by once daily injection (10 mg/kg i.p.). Viral RNA load was measured over time in plasma from these mice, and productively infected cells were counted in tissues harvested from animals at sacrifice (including lymph node (FIG. 4) and spleen (FIG. 5)).
Further, starting at 10 weeks post infection, when the mice were at the peak of their viral load (VL) the MLK-3 inhibitor Compound AH was administered daily and the nanoART was administered weeks for three weeks. Peripheral VL ratio of human CD4+ and CD8+ T lymphocyte, drug levels in plasma and organs and pathological changes in lymphoid and brain tissues were investigated.
as §1

MOG35-55 EAE mice = assay: MOG35-55 EAE model; format: in vivo
From the text: Hippocampal synaptic injury in MOG35-55 EAE mice correlates with microglial activation and may occur independent of myelin loss. […] Protective effects in EAE hippocampal gray matter appear dissociable from those in the spinal cord. Many interventions targeting microglial function affect EAE motor deficits and the spinal cord inflammation that those largely reflect.

Tat = Tat (Human immunodeficiency virus type 1 group M subtype B (isolate HXB2) (HIV-1), UniProt P04608); assay: Tat injection model, synapse protection and neuroinflammation (FIGS. 10-24); format: in vivo
Chain of Tat (P04608 whole entry, looked up): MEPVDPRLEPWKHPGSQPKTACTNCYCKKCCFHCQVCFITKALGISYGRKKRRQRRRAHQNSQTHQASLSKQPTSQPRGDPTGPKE
Protocol: FIG. 19 is a group of photographs showing IHC synapse protection. Map2 staining 28 days post injection at the injection site. Pre/continuous treatment with Compound AH at 10 mg/kg i.p. q 12, 9 μg of Tat injected at 80 nL/min. The same Compound AH/Tat treatment paradigm was used in FIGS. 20-24.
(FIGS. 10-24). The compound is a selectively non-selective inhibitor for a subset of kinases that have pathogenetic roles for activation of immune effector cells with damage to target cells (neurons, myocytes, pancreatic acinar cells) in both central and peripheral degenerative diseases with autoimmune components.

Chain of MLK3 (Q66HA1 whole entry): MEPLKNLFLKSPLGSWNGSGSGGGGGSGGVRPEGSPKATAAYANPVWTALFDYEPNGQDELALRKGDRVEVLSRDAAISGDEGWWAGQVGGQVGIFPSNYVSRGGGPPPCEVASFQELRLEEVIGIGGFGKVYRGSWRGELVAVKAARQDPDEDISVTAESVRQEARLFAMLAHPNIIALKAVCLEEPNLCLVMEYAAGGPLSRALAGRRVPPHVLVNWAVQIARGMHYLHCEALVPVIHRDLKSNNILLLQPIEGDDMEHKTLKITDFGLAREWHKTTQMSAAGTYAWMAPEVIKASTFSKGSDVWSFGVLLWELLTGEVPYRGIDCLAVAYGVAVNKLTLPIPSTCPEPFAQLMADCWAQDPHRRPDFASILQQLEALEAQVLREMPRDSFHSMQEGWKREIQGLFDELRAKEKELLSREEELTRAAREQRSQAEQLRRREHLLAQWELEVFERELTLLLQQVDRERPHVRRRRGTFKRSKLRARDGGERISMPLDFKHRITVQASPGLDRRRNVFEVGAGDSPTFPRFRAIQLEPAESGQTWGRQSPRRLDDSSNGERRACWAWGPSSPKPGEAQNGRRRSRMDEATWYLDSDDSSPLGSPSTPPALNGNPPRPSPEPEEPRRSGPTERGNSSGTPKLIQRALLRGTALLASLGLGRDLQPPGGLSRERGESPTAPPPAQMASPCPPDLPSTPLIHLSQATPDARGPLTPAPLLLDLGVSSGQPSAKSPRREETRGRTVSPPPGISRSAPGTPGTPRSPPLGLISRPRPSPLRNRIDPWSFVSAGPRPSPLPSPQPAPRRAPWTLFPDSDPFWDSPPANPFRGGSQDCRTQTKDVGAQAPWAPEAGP

Compound: CCSCc1ccc2c(c1)c1c3c(c4c5cc(CSCC)ccc5n5c4c1n2[C@H]1C[C@](O)(C(=O)OC)[C@]5(C)O1)CNC3=O (relative stereo) [CEP1347, 3,9-bis[(ethylthio)methyl]-(8R*,9S*, 11S*)-(−)-9-hydroxy-9-methoxycarbonyl-8-methyl-2,3,9,10-tetrahydro-8,11-epoxy-1H,8H, 11H-2,7b,11a-triazadibenzo(a,g)cycloocta(cde)trinden-1-one]
- neuroprotection in vivo (HIV-1): neuroprotective
- Tat and gp120 induced autophosphorylation of MLK3 (MLK3): abolished
- protection of neurons from lethal effects of HIV-1 gp120 [1]: can protect primary rat hippocampal neurons as well as dorsal root ganglion neurons

Compound: CN1CCN(Cc2ccc(-c3cnc4[nH]cc(-c5ccc6[nH]ccc6c5)c4c3)cc2)CC1 [Compound AH]
- tat-induced cytokine production (Human monocytes; FIG. 11): blocks tat-induced cytokine production
- tat-induced chemokine production (Human monocytes; FIG. 12): blocks tat-induced chemokine production
- Rab7 protein regulation (Rab7): induced the RAS-related GTP-binding protein Rab7
- time for which atazanavir/ritonavir nanoART drug levels in late endosomes are increased ([2]; 1 and 10 ng/mL of Compound AH, FIG. 25): more than 10 days
- drug levels in Rab compartments ([2]; Compound AH induction): general increase in drug levels was seen in all Rab compartments
- HIV-1 viral load (HIV-1 ADA): modest reducing in HIV-1 viral load
- microglial activation in EAE hippocampus (MOG35-55 EAE mice; EAE hippocampus): attenuates microglial activation
- synaptic structure in EAE hippocampus (MOG35-55 EAE mice; EAE hippocampus): protects synaptic structure
- EAE motor deficits (MOG35-55 EAE mice; treatment at onset of clinical disease): no effect on EAE motor deficits
- neuroprotection to the synapse (Tat; Compound AH 10 mg/kg i.p. q 12, 9 μg of Tat injected): provides neuroprotection to the synapse
- neuroinflammation (Tat; FIGS. 10-24): anti-neuroinflammatory
